Laboratory results: PubChem BioAssay AID1963845 (Molecular Pharmacology Branch, DTP, NCI, 2024)

Test system: 429239-143-T-J1-PDC complex spheroid viability
Assay: Anticancer human tumor 429239-143-T-J1-PDC patient-derived small cell lung carcinoma cell line growth inhibition [POLQ]
Settings: for IC50: curve of first compound; for viability, T/C: stronger effect = lower value
Procedure, shortened: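 Patient-derived tumour cells were co-cultured with HUVEC and mesenchymal stem cells as multicellular spheroids at 37 °C. They were treated with POLQ inhibitors (novobiocin, ART-558, RP6685) alone or combined with other agents. Top concentrations were at or near clinical Cmax (otherwise 10 microM; SN-38 at 1 microM), decreasing in half-log steps.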

[1] = second compound 0.0316 µM, first compound 0.0316 µM
[2] = second compound 0.0316 µM, first compound 0.1 µM
[3] = second compound 0.0316 µM, first compound 0.316 µM
[4] = second compound 0.0316 µM, first compound 1 µM
[5] = second compound 0.1 µM, first compound 0.0316 µM
[6] = second compound 0.1 µM, first compound 0.1 µM
[7] = second compound 0.1 µM, first compound 0.316 µM
[8] = second compound 0.1 µM, first compound 1 µM
[9] = second compound 0.316 µM, first compound 0.0316 µM
[10] = second compound 0.316 µM, first compound 0.1 µM
[11] = second compound 0.316 µM, first compound 0.316 µM
[12] = second compound 0.316 µM, first compound 1 µM
[13] = second compound 1 µM, first compound 0.0316 µM
[14] = second compound 1 µM, first compound 0.1 µM
[15] = second compound 1 µM, first compound 0.316 µM
[16] = second compound 1 µM, first compound 1 µM
[17] = second compound 3.16 µM, first compound 0.0316 µM
[18] = second compound 3.16 µM, first compound 0.1 µM
[19] = second compound 3.16 µM, first compound 0.316 µM
[20] = second compound 3.16 µM, first compound 1 µM
[21] = second compound 10 µM, first compound 0.0316 µM
[22] = second compound 10 µM, first compound 0.1 µM
[23] = second compound 10 µM, first compound 0.316 µM
[24] = second compound 10 µM, first compound 1 µM
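Further: luminescence signal used as surrogate measure of viable cells; spheroids exposed to compounds for seven days before readout.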
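Wherever viability, T/C is given: 100% = DMSO vehicle control viability as luminescence relative to vehicle.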

## COc1cccc(OCCCN)c1-c1cc(Nc2cnc(C#N)cn2)n[nH]1 + COC1C(OC(N)=O)C(O)C(Oc2ccc3c(O)c(NC(=O)c4ccc(O)c(CC=C(C)C)c4)c(=O)oc3c2C)OC1(C)C
Second compound 0.0316 µM
  IC50: 82.1 nM
Second compound 0.1 µM
  IC50: 69 nM
Second compound 0.316 µM
  IC50: 69.6 nM
Second compound 1 µM
  IC50: 64.5 nM
Second compound 3.16 µM
  IC50: 57.9 nM
Second compound 10 µM
  IC50: 54.9 nM
Second compound 0.0316 µM, first compound 0.00316 µM
  viability, T/C: 98.8%
Second compound 0.0316 µM, first compound 0.01 µM
  viability, T/C: 94.7%
[1]
  viability, T/C: 79.8%
[2]
  viability, T/C: 42.2%
[3]
  viability, T/C: 32%
[4]
  viability, T/C: 21.3%
Second compound 0.1 µM, first compound 0.00316 µM
  viability, T/C: 93.6%
Second compound 0.1 µM, first compound 0.01 µM
  viability, T/C: 92.8%
[5]
  viability, T/C: 66.6%
[6]
  viability, T/C: 42.1%
[7]
  viability, T/C: 26.6%
[8]
  viability, T/C: 21%
Second compound 0.316 µM, first compound 0.00316 µM
  viability, T/C: 99.7%
Second compound 0.316 µM, first compound 0.01 µM
  viability, T/C: 99%
[9]
  viability, T/C: 72.8%
[10]
  viability, T/C: 39.1%
[11]
  viability, T/C: 27.1%
[12]
  viability, T/C: 20.4%
Second compound 1 µM, first compound 0.00316 µM
  viability, T/C: 90.8%
Second compound 1 µM, first compound 0.01 µM
  viability, T/C: 99.1%
[13]
  viability, T/C: 70.9%
[14]
  viability, T/C: 37.3%
[15]
  viability, T/C: 30.3%
[16]
  viability, T/C: 24%
Second compound 3.16 µM, first compound 0.00316 µM
  viability, T/C: 96.3%
Second compound 3.16 µM, first compound 0.01 µM
  viability, T/C: 99.4%
[17]
  viability, T/C: 66.7%
[18]
  viability, T/C: 35.3%
[19]
  viability, T/C: 28.5%
[20]
  viability, T/C: 23.1%
Second compound 10 µM, first compound 0.00316 µM
  viability, T/C: 83.6%
Second compound 10 µM, first compound 0.01 µM
  viability, T/C: 83.5%
[21]
  viability, T/C: 64.7%
[22]
  viability, T/C: 33.5%
[23]
  viability, T/C: 34%
[24]
  viability, T/C: 23.4%

## CCc1cc2c(N3CCc4c(cc(Cn5ccnc5)cc4-c4cn(C)nc4C(F)(F)F)C3=O)cc(C)nc2c(OC)n1 + COC1C(OC(N)=O)C(O)C(Oc2ccc3c(O)c(NC(=O)c4ccc(O)c(CC=C(C)C)c4)c(=O)oc3c2C)OC1(C)C
Second compound 0.0316 µM
  IC50: 1470 nM
Second compound 0.1 µM
  IC50: 2240 nM
Second compound 0.316 µM
  IC50: 1390 nM
Second compound 1 µM
  IC50: 1990 nM
Second compound 3.16 µM
  IC50: 1410 nM
Second compound 10 µM
  IC50: 715 nM
[1]
  viability, T/C: 85.5%
[2]
  viability, T/C: 85.1%
[3]
  viability, T/C: 70.6%
[4]
  viability, T/C: 50%
Second compound 0.0316 µM, first compound 3.16 µM
  viability, T/C: 46.1%
Second compound 0.0316 µM, first compound 10 µM
  viability, T/C: 29%
[5]
  viability, T/C: 94.5%
[6]
  viability, T/C: 88.7%
[7]
  viability, T/C: 70%
[8]
  viability, T/C: 64.3%
Second compound 0.1 µM, first compound 3.16 µM
  viability, T/C: 43.4%
Second compound 0.1 µM, first compound 10 µM
  viability, T/C: 33.4%
[9]
  viability, T/C: 95.2%
[10]
  viability, T/C: 95%
[11]
  viability, T/C: 65.1%
[12]
  viability, T/C: 57.8%
Second compound 0.316 µM, first compound 3.16 µM
  viability, T/C: 41.5%
Second compound 0.316 µM, first compound 10 µM
  viability, T/C: 40.4%
[13]
  viability, T/C: 90.2%
[14]
  viability, T/C: 76%
[15]
  viability, T/C: 65.8%
[16]
  viability, T/C: 69.1%
Second compound 1 µM, first compound 3.16 µM
  viability, T/C: 37.8%
Second compound 1 µM, first compound 10 µM
  viability, T/C: 30.5%
[17]
  viability, T/C: 83.8%
[18]
  viability, T/C: 83.3%
[19]
  viability, T/C: 81.7%
[20]
  viability, T/C: 52.6%
Second compound 3.16 µM, first compound 3.16 µM
  viability, T/C: 44.2%
Second compound 3.16 µM, first compound 10 µM
  viability, T/C: 31.1%
[21]
  viability, T/C: 88.2%
[22]
  viability, T/C: 82.8%
[23]
  viability, T/C: 61.6%
[24]
  viability, T/C: 44%
Second compound 10 µM, first compound 3.16 µM
  viability, T/C: 46.3%
Second compound 10 µM, first compound 10 µM
  viability, T/C: 34.1%
